Source: PubChem BioAssay (NCI)
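In this assay, cells in 96-well plates receive the compound at five concentrations for 48 hours. Endpoints are linearly interpolated between the surrounding concentrations. TGI: total growth inhibition.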

How the values were obtained:
Test in all cases: DTP human tumour cell line panel, 48 h
MDA-MB-435 = test system: MDA-MB-435
NCI-H522 lung = test system: NCI-H522 lung
UACC-257 melanoma = test system: UACC-257 melanoma
OVCAR-5 ovarian = test system: OVCAR-5 ovarian
MCF7 breast = test system: MCF7 breast
SF-268 CNS = test system: SF-268 CNS
A498 renal = test system: A498 renal
DU-145 prostate = test system: DU-145 prostate
COLO 205 colon = test system: COLO 205 colon
UACC-62 melanoma = test system: UACC-62 melanoma
PC-3 prostate = test system: PC-3 prostate
BT-549 breast = test system: BT-549 breast
M14 melanoma = test system: M14 melanoma
MOLT-4 leukemia = test system: MOLT-4 leukemia
A549 NSCLC = test system: A549 NSCLC
CAKI-1 renal = test system: CAKI-1 renal
TK-10 renal = test system: TK-10 renal
SF-539 CNS = test system: SF-539 CNS
OVCAR-3 ovarian = test system: OVCAR-3 ovarian

Measured: TGI

COCN1C(=O)[C@@H]2C[C@@H](O)CN2C(=O)c2ccccc21
not listed: SF-539 CNS | OVCAR-3 ovarian
> 100 µM: all other assays above

Cn1c(-c2ccccc2)cc(-c2ccc3c(c2)OCO3)c1-c1ccsc1
not listed: NCI-H522 lung
> 100 µM: all other assays above

O=C(O)CCC(NC(=O)c1ccc(Oc2nc3ccccc3nc2C(=O)O)cc1)C(=O)O (stereo not given)
not listed: MCF7 breast | SF-539 CNS
> 100 µM: all other assays above

CC(=O)NC1=NC(=O)/C(=C/c2ccccc2Cl)N1C
not listed: A498 renal
> 100 µM: all other assays above

COc1cc(C2c3cc4c(cc3OC(NNC(N)=S)C2C)OCO4)cc(OC)c1OC (stereo not given)
1.24 µM: NCI-H522 lung
0.523 µM: SF-539 CNS
36.3 µM: CAKI-1 renal
> 57.6 µM: OVCAR-3 ovarian
34.7 µM: A498 renal
> 51.9 µM: M14 melanoma
1.37 µM: COLO 205 colon
62.3 µM: BT-549 breast
> 92.7 µM: UACC-257 melanoma
not listed: MDA-MB-435 | PC-3 prostate | MOLT-4 leukemia
> 100 µM: all other assays above

COc1ccccc1NC1Oc2cc3c(cc2C(c2cc(OC)c(OC)c(OC)c2)C1C)OCO3 (stereo not given)
> 70.8 µM: BT-549 breast
> 46.2 µM: SF-268 CNS
17.1 µM: CAKI-1 renal
> 60.9 µM: UACC-62 melanoma
33 µM: MOLT-4 leukemia
5.24 µM: SF-539 CNS
> 30 µM: A498 renal
5.79 µM: COLO 205 colon
4.82 µM: NCI-H522 lung
not listed: MDA-MB-435 | OVCAR-3 ovarian
> 100 µM: all other assays above

COC(=O)C1(Cc2ccccc2)Cc2ccccc2C1O (stereo not given)
not listed: M14 melanoma
> 100 µM: all other assays above

COc1ccc(C2(CC(C)C)CCNC2)cc1OC (stereo not given)
not listed: MOLT-4 leukemia | SF-539 CNS | OVCAR-3 ovarian
> 100 µM: all other assays above

Cc1n[nH]c(=O)n1C1CC1
not listed: A498 renal | TK-10 renal
> 100 µM: all other assays above

Cc1ccc(S(=O)(=O)C2=Cc3ccccc3C2(O)c2ccccc2)cc1 (stereo not given)
> 100 µM: OVCAR-5 ovarian | SF-268 CNS | DU-145 prostate | MOLT-4 leukemia | A549 NSCLC | TK-10 renal
62.6 µM: COLO 205 colon
47.5 µM: SF-539 CNS
92.6 µM: PC-3 prostate
69.9 µM: MDA-MB-435
63.1 µM: BT-549 breast
> 10 µM: UACC-257 melanoma | A498 renal
65 µM: NCI-H522 lung
31 µM: M14 melanoma

CCCC(=O)OCC1OC(n2cc(F)c(=O)[nH]c2=O)C(F)C1O (stereo not given)
> 67.1 µM: DU-145 prostate
> 31.6 µM: SF-539 CNS
not listed: A498 renal | CAKI-1 renal
> 100 µM: all other assays above

Cc1nc(C(N)=S)sc1C(=O)CC(=O)C(=O)Nc1ccc(Br)cc1
not listed: DU-145 prostate | COLO 205 colon | MOLT-4 leukemia
> 100 µM: all other assays above

Cc1ccc(S(=O)(=O)N(CCN)c2cc3c4c(c2)Oc2cccc5c2C4c2c(cccc2O3)O5)cc1
35.7 µM: PC-3 prostate
66.6 µM: M14 melanoma
42.2 µM: OVCAR-3 ovarian
62.1 µM: OVCAR-5 ovarian
98.4 µM: UACC-257 melanoma
50 µM: SF-539 CNS
47.8 µM: MCF7 breast
60.3 µM: MDA-MB-435
27.4 µM: SF-268 CNS
57.9 µM: COLO 205 colon
not listed: NCI-H522 lung | DU-145 prostate | CAKI-1 renal
> 100 µM: all other assays above

CCOC(=O)C1CCCc2sc(N)c(C#N)c21 (stereo not given)
not listed: MDA-MB-435 | NCI-H522 lung | SF-268 CNS | DU-145 prostate | CAKI-1 renal | SF-539 CNS | OVCAR-3 ovarian
> 100 µM: all other assays above
